Earlier results in patent US8338383B1, “Use of immunomodulators for the treatment of cancer” (priority 2012, dated 2012).

Test system: patients with advanced pancreatic cancer
Conditions: survival from study enrollment to death from any cause

SMILES	median Overall Survival [months]	increased median survival versus 5-FU [months]
O=c1[nH]cc(F)c(=O)[nH]1 [5-FU, 5-fluorouracil]	4.2	
Nc1ccn([C@@H]2O[C@H](CO)[C@@H](O)C2(F)F)c(=O)n1 [gemcitabine, Gemcitabine]	5.7	1.5
